Laboratory results published in patent US7642063B2, “Methods for targeting and killing glioma cells” (Auburn University, priority 2004, dated 2010).

Tests used:
RG2 glioma cells [1] = assay: Cytotoxicity by MTT assay on glioma cells; type: cell-based, rat; conditions: 10 or 100 uM, 48 hours incubation
Description: (§1) Using glioma-selective sequences from the second family shown in FIG. 4 (and in FIG. 5(a)), a fusion molecule containing the same identical cell-targeting peptide coupled to a cell-killing peptide was designed and synthesized. Glioma cells (malignant cells originating from astrocytes) and normal astrocytes were treated with increasing concentrations (10 or 100 uM) of cytotoxic peptide alone, or cytotoxic peptide linked to the targeting peptide, i.e. the peptide drug, and cytotoxicity was evaluated by MTT assay (this assay measures cell viability).
(§2) FIG. 5(b) further illustrates the cytotoxic effect of d(KLAKLAK)2(SEQ ID NO:4) and DSTK-GG-d(KLAKLAK)2(SEQ ID NO:5) peptides on the glioma cells and the normal astrocytes. RG2 glioma cells and normal rat astrocytes were plated in quadruplicate in 96-well plates for 24 hours. Increasing concentrations (10 or 100 uM) of cytotoxic peptide alone, d(KLAKLAK)2(SEQ ID NO:4), or cytotoxic peptide linked to targeting peptide, DSTK-GG-d(KLAKLAK)2(SEQ ID NO:5), were added to the cells for 48 hours incubation. Cytotoxicity of therapeutic peptides were evaluated by MTT assay.

normal rat astrocytes = assay: Cytotoxicity by MTT assay on normal astrocytes; type: cell-based; conditions: 10 or 100 uM, 48 hours incubation
Description: as §1, §2

RG2 glioma cells [2] = assay: Detection of internalized phage particles by immunofluorescence microscopy (saponin+/saponin−); type: cell-based, rat; conditions: saponin-treated vs untreated RG2 cells
Description: FIG. 5(a) illustrates the detection of internalized phage particles by immunofluorescence microscopy. RG2 glioma cells were grown on chamber slides and incubated with DSTKSGNM (SEQ ID NO:3) phage. In cells treated with saponin (saponin+) to permeabilize cell membranes, both internalized and extracellular bound phage particles were accessible for staining. Without saponin treatment (saponin−), FIG. 5(a) illustrates that only extracellular phage were available for detection. These slides were then processed for immunofluorescence microscopy with antibody against filed phage, followed by a fluorescein-conjugated secondary antibody to visualize phage particles.

Compound	cytotoxic effect on glioma cells (MTT, cell viability) (RG2 glioma cells [1])	effect on normal astrocytes (MTT, cell viability) (normal rat astrocytes)	internalization of phage by cells (RG2 glioma cells [2])
CC(C)C[C@@H](NC(=O)[C@@H](CCCCN)NC(=O)CNC(=O)CNC(=O)[C@H](CCCCN)NC(=O)[C@@H](NC(=O)[C@H](CO)NC(=O)[C@@H](N)CC(=O)O)[C@@H](C)O)C(=O)N[C@H](C)C(=O)N[C@H](CCCCN)C(=O)N[C@H](CC(C)C)C(=O)N[C@H](C)C(=O)N[C@H](CCCCN)C(=O)N[C@H](CCCCN)C(=O)N[C@H](CC(C)C)C(=O)N[C@H](C)C(=O)N[C@H](CCCCN)C(=O)N[C@H](CC(C)C)C(=O)N[C@H](C)C(=O)N[C@H](CCCCN)C(=O)O [peptide drug, DSTK-GG-d(KLAKLAK)2]	clear cytotoxic effect	None of the peptides, with or without targeting, demonstrated any effect	–
CC(C)C[C@@H](NC(=O)[C@H](N)CCCCN)C(=O)N[C@H](C)C(=O)N[C@H](CCCCN)C(=O)N[C@H](CC(C)C)C(=O)N[C@H](C)C(=O)N[C@H](CCCCN)C(=O)N[C@H](CCCCN)C(=O)N[C@H](CC(C)C)C(=O)N[C@H](C)C(=O)N[C@H](CCCCN)C(=O)N[C@H](CC(C)C)C(=O)N[C@H](C)C(=O)N[C@H](CCCCN)C(=O)O [cytotoxic peptide alone, d(KLAKLAK)2, reference compound]	no effect	None of the peptides, with or without targeting, demonstrated any effect	–
DSTKSGNM [DSTKSGNM phage]	–	–	internalized
